Compound: CC1=CC(=CC=C1)NC2=NC(=CS2)C3=CC=NC=C3 + O=C(c1cc(Cc2n[nH]c(=O)c3ccccc23)ccc1F)N1CCN(C(=O)C2CC2)CC1 [Olaparib] (partner 8 µM)
Assay: relative viability (nuclei count vs DMSO), 5 days (fraction); higher = more cells survive
Conditions: first compound 0.08 µM
Method in brief: (§1)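 Dosing by pin tool came one day after lung cancer cell lines were seeded in 1536-well plates, using either one drug or a fixed anchor-drug dose plus five library-drug doses (not always all listed) in √10 steps. After 5 days, nuclei were counted on 4× images. Relative viability is treated-well nuclei count divided by vehicle-well nuclei count, and values are medians of duplicate plates.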

Cell Line | relative viability
NCI-H522 | 0.708
EBC-1 | 0.575
NCI-H2009 | 0.629
NCI-H2228 | 0.396
Calu-6 | 0.422
NCI-H1703 | 0.313
NCI-H2342 | 0.438
COR-L23 | 0.308
COR-L 105 | 0.575
IA-LM | 0.8
A549 | 0.264
SW 900 | 0.751
NCI-H2023 | 0.42
NCI-H520 | 0.384
SW 1573 | 0.486
NCI-H1299 | 1.01
CAL-12T | 0.614
NCI-H1650 | 0.539
SK-LU-1 | 0.49
SK-MES-1 | 0.423
NCI-H661 | 0.736

Same assay, conditions: first compound 0.253 µM

Cell Line | relative viability
NCI-H522 | 0.579
EBC-1 | 0.417
NCI-H2009 | 0.644
NCI-H2228 | 0.324
Calu-6 | 0.471
NCI-H1703 | 0.33
NCI-H2342 | 0.468
COR-L23 | 0.283
COR-L 105 | 0.499
IA-LM | 0.779
A549 | 0.37
SW 900 | 0.667
NCI-H2023 | 0.543
NCI-H520 | 0.325
SW 1573 | 0.544
NCI-H1299 | 1
CAL-12T | 0.677
NCI-H1650 | 0.901
SK-LU-1 | 0.435
SK-MES-1 | 0.437
NCI-H661 | 0.803

Same assay, conditions: first compound 0.8 µM

Cell Line | relative viability
NCI-H522 | 0.746
EBC-1 | 0.328
NCI-H2009 | 0.717
NCI-H2228 | 0.525
Calu-6 | 0.43
NCI-H1703 | 0.359
NCI-H2342 | 0.398
COR-L23 | 0.245
COR-L 105 | 0.477
IA-LM | 0.605
A549 | 0.353
SW 900 | 0.693
NCI-H2023 | 0.38
NCI-H520 | 0.391
SW 1573 | 0.526
NCI-H1299 | 0.889
CAL-12T | 0.609
NCI-H1650 | 0.525
SK-MES-1 | 0.466
NCI-H661 | 0.769

Same assay, conditions: first compound 2.53 µM

Cell Line | relative viability
NCI-H522 | 0.544
EBC-1 | 0.41
NCI-H2009 | 0.677
NCI-H2228 | 0.559
Calu-6 | 0.479
NCI-H1703 | 0.585
NCI-H2342 | 0.476
COR-L23 | 0.322
COR-L 105 | 0.541
IA-LM | 0.475
A549 | 0.261
SW 900 | 0.433
NCI-H2023 | 0.388
NCI-H520 | 0.314
SW 1573 | 0.465
NCI-H1299 | 0.904
CAL-12T | 0.792
NCI-H1650 | 0.488
SK-LU-1 | 0.459
SK-MES-1 | 0.457
NCI-H661 | 0.75

Same assay, conditions: first compound 8 µM

Cell Line | relative viability
NCI-H522 | 0.704
EBC-1 | 0.451
NCI-H2009 | 0.63
NCI-H2228 | 0.415
Calu-6 | 0.407
NCI-H1703 | 0.447
NCI-H2342 | 0.395
COR-L23 | 0.285
COR-L 105 | 0.457
IA-LM | 0.714
A549 | 0.449
SW 900 | 0.543
NCI-H2023 | 0.286
NCI-H520 | 0.288
SW 1573 | 0.441
NCI-H1299 | 0.854
CAL-12T | 0.617
NCI-H1650 | 0.432
SK-LU-1 | 0.433
SK-MES-1 | 0.401
NCI-H661 | 0.642

Compound: Cc1ccc(NC(=O)c2ccc(CN3CCN(C)CC3)cc2)cc1Nc1nc(-c2cccnc2)cs1 [Masitinib] + CS(=O)(=O)N1CCN(Cc2cc3nc(-c4cccc5[nH]ncc45)nc(N4CCOCC4)c3s2)CC1 [Pictilisib] (partner 1 µM)
Assay: as above
Conditions: first compound 0.01 µM
Method in brief: as §1

Cell Line | relative viability
EBC-1 | 0.348
NCI-H2009 | 0.641
NCI-H2228 | 0.381
Calu-6 | 0.905
NCI-H1703 | 0.226
COR-L23 | 0.751
COR-L 105 | 0.396
IA-LM | 0.291
A549 | 0.459
NCI-H2023 | 0.225
NCI-H520 | 0.336
SW 1573 | 0.471
NCI-H1299 | 0.8
CAL-12T | 0.519
NCI-H1563 | 0.656
NCI-H1650 | 0.53
SK-LU-1 | 0.483
SK-MES-1 | 0.346
NCI-H661 | 0.439

Same assay, conditions: first compound 0.03162 µM

Cell Line | relative viability
EBC-1 | 0.357
NCI-H2009 | 0.87
NCI-H2228 | 0.36
Calu-6 | 0.857
NCI-H1703 | 0.255
COR-L23 | 0.749
COR-L 105 | 0.356
IA-LM | 0.415
A549 | 0.48
NCI-H2023 | 0.248
SW 1573 | 0.542
NCI-H1299 | 0.785
CAL-12T | 0.377
NCI-H1563 | 0.641
NCI-H1650 | 0.501
SK-LU-1 | 0.53
SK-MES-1 | 0.312
NCI-H661 | 0.356

Same assay, conditions: first compound 0.1 µM

Cell Line | relative viability
EBC-1 | 0.427
NCI-H2009 | 0.756
NCI-H2228 | 0.398
Calu-6 | 1.06
NCI-H1703 | 0.217

From the supplement of paper PMC10307832
